Counter-ions that a name gives are not always drawn.
Key:
[1] = target: T1, human neutrophil elastase (Homo sapiens, UniProt P08246); assay: In vitro assay of human neutrophil elastase (HNE); assay type: biochemical; conditions: 118 nM purified human neutrophil elastase, pH 8.6, 15 min incubation at 30° C., MeO-succinyl-alanyl-alanyl-prolyl-valyl-p-nitroanilide substrate; read-out: HNE IC50
T1 sequence (P08246 30-267): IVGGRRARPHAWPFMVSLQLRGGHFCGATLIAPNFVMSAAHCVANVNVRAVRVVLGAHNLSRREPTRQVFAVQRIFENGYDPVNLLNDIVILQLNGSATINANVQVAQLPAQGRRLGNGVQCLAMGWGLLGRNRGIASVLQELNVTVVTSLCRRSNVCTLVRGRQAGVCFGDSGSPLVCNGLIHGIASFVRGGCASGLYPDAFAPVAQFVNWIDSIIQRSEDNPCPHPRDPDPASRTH
Summary of the method: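 Residual activity was taken as the 10 min rate of absorbance rise at 405 nm after adding 0.6 mM MeO-succinyl-AAPV-p-nitroanilide. Curve fitting of activity against concentration gave IC50.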

Intracellular elastase = assay: Oral in vivo model using IL-8 induced lung infiltrates for the assessment of intracellular elastase inhibition (hamster test); conditions: effective dose of less than 40 mg/kg, IL-8 intratracheal
Method: An Oral in vivo Model Using IL-8 Induced Lung Infiltrates For the Assessment of Intracellular Elastase Inhibition
Adult hamsters (100-150 g) are randomised into groups (n=4) and fasted overnight. Under gaseous anaesthetic (3% isofluorane) animals are dosed orally with 1 mL/100 g water as vehicle or containing predissolved compounds. Either at the same time, or subsequently under anaesthetic, animals are dosed intratracheally with 1 ug recombinant human IL-8 in 100 uL sterile saline. Six hours after IL-8 dosing animals are sacrificed using intrapertoneal pentobarbitone. The lungs are ravaged with 2×2.5 mL sterile saline and femurs are removed by dissection.
Intracellular elastase is prepared from neutrophils collected by lavage and from femoral bone marrow. This is achieved by sonication of the neutrophils and centrifugation to yield intracellular granules. These are disrupted by freeze/thawing and sonication. Elastase and myeloperoxidase assays are then performed on these samples to assess the efficacy of the compounds and to normalise for neutrophil recovery.

| IC50 [1] | SMILES | duration of effect (Intracellular elastase) |
| --- | --- | --- |
| 36 nM | COC(=O)[C@@H]1CCCN1C/C=C/C(=O)N1CC[C@H]2[C@H]1[C@@H](C(C)C)C(=O)N2S(C)(=O)=O (relative stereo) [Example 140, 1-[4-(rel-6R-Isopropyl-4-methanesulfonyl-5-oxo-hexahydro-(3aS,6aR)-pyrrolo[3,2-b]pyrrol-1-yl)-4-oxo-but-2E-enyl]-pyrrolidine-2S-carboxylic acid methyl ester hydrochloride] | at least 6 hours |
| 176 nM | CCCN(C)C/C=C/C(=O)N1CC[C@H]2[C@H]1[C@@H](C(C)C)C(=O)N2S(C)(=O)=O.Cl (relative stereo) [Example 141, rel-(3R,3aR,6aS)-3-Isopropyl-1-methanesulfonyl-4-[4-(methyl-propyl-amino)-but-2E-enoyl]-hexahydro-pyrrolo[3,2-b]pyrrol-2-one hydrochloride] | at least 6 hours |
| 55 nM | CC(C)[C@H]1C(=O)N(S(C)(=O)=O)[C@H]2CCN(C(=O)/C=C/CN3CCOCC3)[C@H]12.Cl (relative stereo) [Example 142, rel-(3R,3aR,6aS)-3-isopropyl-1-methanesulfonyl-4-(4-morpholin-4-yl-but-2E-enoyl)-hexahydro-pyrrolo[3,2-b]pyrrol-2-one hydrochloride] | at least 6 hours |
| 33 nM | CC(C)[C@H]1C(=O)N(S(C)(=O)=O)[C@H]2CCN(C(=O)/C=C/CN3CCN(C)CC3)[C@H]12.Cl (relative stereo) [Example 143, rel-(3R,3aR,6aS)-3-Isopropyl-1-methanesulfonyl-4-[4-(4-methyl-piperazin-1-yl)-but-2E-enoyl]-hexahydro-pyrrolo[3,2-b]pyrrol-2-one hydrochloride] | at least 6 hours |
| 71 nM | CC(C)[C@H]1C(=O)N(S(C)(=O)=O)[C@H]2CCN(C(=O)/C=C/CN(C(C)C)C(C)C)[C@H]12.Cl (relative stereo) [Example 144, rel-(3R,3aR,6aS)-4-(4-Diisopropylamino-but-2E-enoyl)-3-isopropyl-1-methanesulfonyl-hexahydro-pyrrolo[3,2-b]pyrrol-2-one hydrochloride] | at least 6 hours |
| 39 nM | CCN(CC)C/C=C/C(=O)N1CC[C@H]2[C@H]1[C@@H](C(C)C)C(=O)N2S(C)(=O)=O (relative stereo) [Example 145, rel-(3R,3aR,6aS)-4-Diethylamino-but-2E-enoyl)-3-isopropyl-1-methanesulfonyl-hexahydro-pyrrolo[3,2-b]pyrrol-2-one hydrochloride] | at least 6 hours |
| 34 nM | CC(C)[C@H]1C(=O)N(S(C)(=O)=O)[C@H]2CCN(C(=O)/C=C/CN3CCCC3)[C@H]12.Cl (relative stereo) [Example 146, rel-(3R,3aR,6aS)-3-Isopropyl-1-methanesulfonyl-4(4-pyrrolidin-1-yl-but-2E-enoyl)-hexahydro-pyrrolo[3,2-b]pyrrol-2-one hydrochloride] | at least 6 hours |
| 96 nM | CON(C)C/C=C/C(=O)N1CC[C@H]2[C@H]1[C@@H](C(C)C)C(=O)N2S(C)(=O)=O (relative stereo) [Example 147, rel-(3R,3aR,6aS)-3-Isopropyl-1-methanesulfonyl-4-[4-(methoxy-methyl-amino)-but-E2-enoyl]-hexahydro-pyrrolo[3,2-b]pyrrol-2-one hydrochloride] | at least 6 hours |
| 35 nM | CC(C)[C@H]1C(=O)N(S(C)(=O)=O)[C@H]2CCN(C(=O)/C=C/CN(C)C)[C@H]12.Cl (relative stereo) [Example 148, rel-(3R,3aR,6aS)-4-(4-Dimethylamino-but-2E-enoyl)-3-isopropyl-1-methanesulfonyl-hexahydro-pyrrolo[3,2-b]pyrrol-2-one hydrochloride] | at least 6 hours |
